Like-named read-outs stand apart in the source and are kept apart here.
Legend:
Influenza A/WSN [1] = experiment: Virus yield reduction assay, influenza A/WSN; type: cell-based, influenza A strain WSN (H1N1)
RSV (Long) = experiment: microbe, parasite or virus in culture; type: cell-based, respiratory syncytial virus strain Long; conditions: human respiratory syncytial virus; titered through plaque assaying
MuV (S. Africa) = experiment: microbe, parasite or virus in culture; type: cell-based, mumps virus strain South Africa; conditions: Mumps orthorubulavirus; titered through plaque assaying
HPIV3 = experiment: microbe, parasite or virus in culture; type: cell-based, human parainfluenzavirus type 3; conditions: Human respirovirus 3; titered through plaque assaying
sindbis virus = type: cell-based; conditions: compared with activity against myxoviruses
[2] = Cytotoxicity (metabolic activity), Vero-Slam cells; type: cell-based; conditions: African green monkey, highest concentration assessed 75 µM, read-out: CC50, Toxicity, Metabolic activity
Description: (§1) A non-radioactive cytotoxicity assay (CytoTox 96 Non-Radioactive Cytotoxicity Assay, Promega) was employed to determine the metabolic activity of cell after exposure to the compound. In a 96-well plate format, 10,000 cells per well were incubated at 37°C for 24 hours in four replicates per concentration tested in the presence of compound in two-fold dilutions starting at 75 µM. Substrate was then added and color development measured at 490 nm using a BioRad plate reader. Values were calculated according to the formula [% toxicity = 100−((experimental-background)/(maximum(vehicle treated)-background)*100)]. Values were plotted in dose-response curves and, if applicable, CC50 concentrations calculated.

[3] = Cytotoxicity (metabolic activity), MDCK; type: cell-based, Canine-dog; conditions: dog, MDCK cells, highest concentration assessed 75 µM
Description: as §1

[4] = Cytotoxicity (metabolic activity), MEL B16; type: cell-based, Rodent-mouse; conditions: mouse, MEL B16 cells, highest concentration assessed 75 µM
Description: as §1

in vitro = type: cell-based, Avian-chicken; conditions: chicken; DF-1; highest concentration assessed 75 µM; read-out: CC50, Metabolic Activity
Description: as §1

PBMCs = experiment: Metabolic activity of primary human PBMCs; type: cell-based; conditions: 24 hours exposure
Description: as §1

smooth muscle cells = experiment: Metabolic activity of primary human smooth muscle cells; type: cell-based; conditions: 24 hours exposure
Description: as §1

[5] = system: different established cell lines (HeLa, A549, HepG2, Vero-Slam, MDCK); experiment: Metabolic activity of different established cell lines; type: cell-based, human, primate, canine; conditions: at 75 µM, 24 hours
Description: as §1

cdc2-cyclin B kinase = experiment: Immunoblot of cdc2-cyclin B kinase phosphorylation status; type: cell-based; conditions: phospho-cdc2 (Tyr15)
Vero cells = experiment: Cell growth rates after compound wash-out; type: cell-based; conditions: 10 µM for 30 hours, 72-hour growth
Description: Vero cells were seeded at a density of 6×10^5 cells and incubated in the presence of 10 µM JMN3-003 or vehicle only for 30 hours at 37°C. Cells were then washed extensively and reseeded at a density of 1×10^5 cells per well, followed by continued incubation at 37°C and assessment of life/dead cell numbers every 24 hours using a Countess automated cell counter (Invitrogen). Cells were reseeded as before when fastest growing cultures approached confluency. Growth rates were calculated for each 24-hour time interval using the Prism software package (GraphPad Software Inc.) based on the formula Y = Y0*exp(K*X) with Y equaling life cell numbers, Y0 the Y value at the starting time (t0), and K the growth constant equaling ln(2)/doubling-time.

[6] = system: MeV H and F mediated cell-to-cell fusion; experiment: MeV glycoprotein-mediated cell-to-cell fusion assay; parameters: species or system measles virus; conditions: microscopic and luciferase reporter-based
MeV-Alaska [7] = experiment: Post-infection time-of-addition assay; type: cell-based, measles virus; conditions: 1.0 µM added at times post-infection
MeV-Alaska [8] = type: cell-based, measles virus; conditions: 100 nM, 40 hours
Influenza A/WSN [9] = experiment: Quantitation of influenza A/WSN antigenome and released progeny genome copies; type: cell-based; conditions: MDCK cells, 24 hours
MeV RdRp = MeV RdRp (Measles morbillivirus (Measles virus), UniProt P12576); experiment: MeV minireplicon luciferase reporter assay; type: cell-based; conditions: BHK-T7 cells, 36 hours
Description: BSR T7/5 cells (5×10^5/well) were transfected with plasmid DNAs encoding MeV-L (0.24 µg), MeV-N (0.94 µg) or MeV-P (0.29 µg) and 2 µg of the MeV luciferase minigenome reporter plasmid. Control wells included identical amounts of reporter and helper plasmids but lacked the L-encoding plasmid. At the time of transfection, JMN3-003 was added as specified, while control wells received vehicle only for comparison. Thirty-six hours post-transfection, cells were lysed with Bright GLO lysis buffer and relative luciferase activities determined using the Britelite substrate and a luminescence counter as outlined above.

MeV-Alaska [10] = experiment: In vitro virus adaptation (resistance induction); type: cell-based, measles virus; conditions: after 90 days of continued viral incubation
Description: Adaptations were carried out essentially as we have previously described. Briefly, Vero-SLAM cells were infected with MeV-Alaska at an MOI of […] and incubated in the presence of gradually increasing JMN3-003 concentrations starting at 0.5 µM. Equally infected cells treated with the virus polymerase targeted RdRp inhibitor AS-136A were examined in parallel. When cultures became over confluent, cells were reseeded for continued incubation in the presence of the same compound concentration as before. At detection of extensive cell-to-cell fusion, cell-associated viral particles were harvested, diluted 10-fold and used for parallel infections of fresh cell monolayers in the presence of compound at unchanged and doubled concentrations. Cultures treated with the highest compound concentrations in which virus-induced cytopathicity became detectable were used for further adaptation. The approach was terminated after 90 days of continued incubation or when virus-induced cytopathicity was readily detectable in the presence of 30 µM compound in accordance with previous results.

[11] = Stability in human plasma; conditions: 120-minute incubation, 37°C

MeV RdRp, sequence (P12576 whole entry, change not shown): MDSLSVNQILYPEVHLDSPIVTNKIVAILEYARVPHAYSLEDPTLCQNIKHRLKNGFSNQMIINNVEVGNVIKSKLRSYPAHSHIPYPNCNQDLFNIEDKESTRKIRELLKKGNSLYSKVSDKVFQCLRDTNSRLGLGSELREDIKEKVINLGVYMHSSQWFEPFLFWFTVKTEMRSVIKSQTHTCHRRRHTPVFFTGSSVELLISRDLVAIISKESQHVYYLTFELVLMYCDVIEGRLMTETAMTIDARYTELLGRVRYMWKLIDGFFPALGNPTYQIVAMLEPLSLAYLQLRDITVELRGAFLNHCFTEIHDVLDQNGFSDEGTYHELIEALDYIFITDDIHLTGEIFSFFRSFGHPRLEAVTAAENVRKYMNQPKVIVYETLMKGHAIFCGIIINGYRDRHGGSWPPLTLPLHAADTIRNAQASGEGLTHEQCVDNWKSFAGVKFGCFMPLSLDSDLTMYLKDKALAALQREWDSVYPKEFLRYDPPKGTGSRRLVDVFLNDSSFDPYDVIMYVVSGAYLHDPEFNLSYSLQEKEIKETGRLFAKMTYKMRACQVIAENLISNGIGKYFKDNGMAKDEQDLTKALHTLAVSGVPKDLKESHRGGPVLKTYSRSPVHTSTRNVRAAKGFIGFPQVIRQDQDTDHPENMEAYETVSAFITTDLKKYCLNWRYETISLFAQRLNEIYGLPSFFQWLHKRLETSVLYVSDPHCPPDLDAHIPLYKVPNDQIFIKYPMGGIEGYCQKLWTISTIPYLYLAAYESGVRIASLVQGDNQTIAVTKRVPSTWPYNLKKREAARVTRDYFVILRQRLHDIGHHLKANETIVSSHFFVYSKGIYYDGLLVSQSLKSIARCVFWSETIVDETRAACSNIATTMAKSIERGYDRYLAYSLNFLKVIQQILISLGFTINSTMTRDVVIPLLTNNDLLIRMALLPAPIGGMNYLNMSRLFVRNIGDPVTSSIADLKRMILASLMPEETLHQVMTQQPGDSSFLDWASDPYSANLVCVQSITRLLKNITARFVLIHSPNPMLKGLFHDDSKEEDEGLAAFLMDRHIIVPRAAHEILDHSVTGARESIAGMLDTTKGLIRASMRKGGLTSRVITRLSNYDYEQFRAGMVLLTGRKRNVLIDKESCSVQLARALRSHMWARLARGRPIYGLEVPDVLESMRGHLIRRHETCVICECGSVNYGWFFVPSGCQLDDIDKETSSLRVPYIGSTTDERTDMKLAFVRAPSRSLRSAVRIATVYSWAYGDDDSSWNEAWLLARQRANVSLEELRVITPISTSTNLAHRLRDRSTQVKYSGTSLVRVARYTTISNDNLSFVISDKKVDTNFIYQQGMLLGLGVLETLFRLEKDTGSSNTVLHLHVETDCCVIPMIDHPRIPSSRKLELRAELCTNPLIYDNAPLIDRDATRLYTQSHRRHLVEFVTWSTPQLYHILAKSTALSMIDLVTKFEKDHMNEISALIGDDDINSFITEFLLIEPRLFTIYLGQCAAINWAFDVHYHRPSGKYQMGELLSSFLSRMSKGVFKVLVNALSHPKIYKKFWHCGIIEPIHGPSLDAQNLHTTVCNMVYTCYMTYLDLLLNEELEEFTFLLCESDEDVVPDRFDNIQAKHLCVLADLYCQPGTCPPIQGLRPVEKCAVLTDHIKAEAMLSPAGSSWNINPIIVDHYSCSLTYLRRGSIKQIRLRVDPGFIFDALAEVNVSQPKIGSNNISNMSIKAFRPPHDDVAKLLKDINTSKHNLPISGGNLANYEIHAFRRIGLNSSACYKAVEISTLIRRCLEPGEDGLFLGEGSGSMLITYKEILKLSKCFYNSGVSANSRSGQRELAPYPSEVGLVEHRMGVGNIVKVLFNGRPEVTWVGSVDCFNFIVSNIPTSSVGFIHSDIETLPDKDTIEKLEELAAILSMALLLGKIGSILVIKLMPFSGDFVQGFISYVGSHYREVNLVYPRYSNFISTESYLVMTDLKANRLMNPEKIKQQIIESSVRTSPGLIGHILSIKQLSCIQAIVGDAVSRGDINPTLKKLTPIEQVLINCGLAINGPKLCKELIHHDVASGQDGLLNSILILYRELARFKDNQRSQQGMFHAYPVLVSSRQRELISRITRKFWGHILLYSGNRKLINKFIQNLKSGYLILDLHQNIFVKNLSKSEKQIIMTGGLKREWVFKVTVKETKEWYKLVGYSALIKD
MeV RdRp, sequence (P03422 whole entry partner): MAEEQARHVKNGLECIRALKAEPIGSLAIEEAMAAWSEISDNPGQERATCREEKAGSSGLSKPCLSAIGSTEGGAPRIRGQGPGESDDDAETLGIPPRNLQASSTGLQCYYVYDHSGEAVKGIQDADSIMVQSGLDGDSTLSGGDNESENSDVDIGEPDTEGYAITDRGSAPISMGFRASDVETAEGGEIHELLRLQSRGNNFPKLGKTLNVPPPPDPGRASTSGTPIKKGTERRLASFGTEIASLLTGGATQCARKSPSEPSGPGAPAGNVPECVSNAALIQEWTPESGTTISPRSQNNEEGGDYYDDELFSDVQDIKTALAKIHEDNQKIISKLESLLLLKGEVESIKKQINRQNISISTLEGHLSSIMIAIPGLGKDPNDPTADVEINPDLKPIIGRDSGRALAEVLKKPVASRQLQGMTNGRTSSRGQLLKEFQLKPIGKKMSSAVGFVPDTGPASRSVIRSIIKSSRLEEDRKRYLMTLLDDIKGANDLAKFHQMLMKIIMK
MeV RdRp, sequence (P0DXN6 whole entry partner): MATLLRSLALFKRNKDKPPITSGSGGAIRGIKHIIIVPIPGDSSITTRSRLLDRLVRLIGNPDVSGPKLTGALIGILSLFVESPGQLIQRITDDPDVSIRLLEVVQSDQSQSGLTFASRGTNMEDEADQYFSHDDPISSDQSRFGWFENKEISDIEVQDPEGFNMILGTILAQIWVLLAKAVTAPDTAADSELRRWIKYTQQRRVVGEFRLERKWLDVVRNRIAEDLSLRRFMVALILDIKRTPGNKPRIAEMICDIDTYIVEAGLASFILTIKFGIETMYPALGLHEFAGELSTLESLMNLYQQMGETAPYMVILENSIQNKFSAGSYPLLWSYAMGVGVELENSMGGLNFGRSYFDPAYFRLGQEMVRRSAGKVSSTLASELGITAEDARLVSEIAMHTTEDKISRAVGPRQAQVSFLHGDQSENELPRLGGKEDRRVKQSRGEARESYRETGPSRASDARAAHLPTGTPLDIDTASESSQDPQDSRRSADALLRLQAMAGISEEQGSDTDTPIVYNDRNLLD

Compound: COc1ccc(-n2c(SC(C)C(=O)Nc3ccc(C)cc3Cl)nc3ccccc32)cc1 (stereo not drawn) [JMN3-003]
- EC50 (Influenza A/WSN [1]; Influenza A virus, WSN, HT-1080, host cell HT1080 (Human), read-out: EC50, Inhibition of Influenza A/WSN): 60 ± 2 nM
- EC50 (Influenza A/WSN [1]; Influenza A virus, WSN, MDCK, read-out: EC50, Inhibition of Influenza A/WSN): 10 nM
- EC50 (Influenza A/WSN [1]; Influenza A virus, WSN, NIH3T3, host cell NIH-3T3 (Rodent-mouse), read-out: EC50, Inhibition of Influenza A/WSN): > 10000 nM
- EC50 (Influenza A/WSN [1]; Influenza A virus, WSN, genome copy numbers of released progeny particles by TaqMan RT-PCR, read-out: EC50, Influenza A/WSN): 10 ± 8 nM
- EC50 (Influenza A/WSN [1]; Influenza A virus, WSN, host cell BHK-21 (Rodent-Syrian hamster), read-out: EC50, Inhibition of Influenza A/WSN): 80 ± 10 nM
- EC50 (Influenza A/WSN [1]; Influenza A virus, WSN, host cell CHO (Rodent-Chinese hamster), read-out: EC50, Inhibition of Influenza A/WSN): 70 ± 10 nM
- EC50 (Influenza A/WSN [1]; Influenza A virus, WSN, host cell DF-1 (Avian-chicken), read-out: EC50, Inhibition of Influenza A/WSN): > 10000 nM
- EC50 (Influenza A/WSN [1]; Influenza A virus, WSN, host cell HeLa (Human), read-out: EC50, Inhibition of Influenza A/WSN): 20 ± 10 nM
- EC50 (Influenza A/WSN [1]; host cell MEL B16 (Rodent-mouse), read-out: EC50, Inhibition of Influenza A/WSN): > 10000 nM
- EC50 (RSV (Long)): 70 ± 10 nM
- EC50 (MuV (S. Africa)): 33 ± 31 nM
- EC50 (HPIV3): 80 ± 10 nM
- activity against sindbis virus (sindbis virus): to a lesser degree
- CC50 at 24 h [2]: > 75000 nM
- CC50 at 24 h [3]: > 75000 nM
- CC50 at 24 h [4]: > 75000 nM
- CC50 at 24 h (in vitro): > 75000 nM
- metabolic activity of primary human PBMCs (PBMCs): unaffected
- metabolic activity of primary human smooth muscle cells (smooth muscle cells): unaffected
- metabolic activity of different established cell lines [5]: unchanged
- phosphorylation status of cdc2-cyclin B kinase (cdc2-cyclin B kinase): increased steady state levels of phosphorylated cdc2-cyclin B kinase
- proliferation rates after removal of compound (Vero cells): proliferation rates resumed those of untreated control cells
- MeV glycoprotein-mediated cell-to-cell fusion [6]: extensive membrane fusion indistinguishable from that seen in vehicle-treated controls
- inhibition profile in time-of-addition experiment (MeV-Alaska [7]): very closely resembled the profile of the AS-136A RdRp blocker class
- reduction of viral mRNA and antigenome copy numbers relative to vehicle (MeV-Alaska [8]): > 100 fold
- drop in relative viral antigenome levels (Influenza A/WSN [9]): > 100 fold
- reduction in genome copies of released progeny virions (Influenza A/WSN [9]): > 10,000 fold
- concentration at which luciferase reporter expression was fully blocked (MeV RdRp): approximately 100 nM
- change of the tolerated dose (MeV-Alaska [10]): only marginal increases in the tolerated dose
- stability in human plasma [11]: virtually unaffected

Source: article PMC3095640, “Potent Host-Directed Small-Molecule Inhibitors of Myxovirus RNA-Dependent RNA-Polymerases” (PLoS ONE, 2011)
